Experimental data: US11739098B2 (BRISTOL-MYERS SQUIBB COMPANY, priority 2017, dated 2023)

Columns and labels:
Type in all cases: cell-based
[1] = molecular target: T1, human TLR7 (Homo sapiens, UniProt Q9NYK1); experiment: TLR7 inhibition reporter assay (HEK-Blue cells, SEAP reporter, gardiquimod stimulation); conditions: HEK-Blue cells overexpressing human TLR7, SEAP reporter, gardiquimod 7.5 μM
T1 construct: host or cells: HEK-Blue cells (HEK293-derived reporter line)
T1 sequence (Q9NYK1 27-1049): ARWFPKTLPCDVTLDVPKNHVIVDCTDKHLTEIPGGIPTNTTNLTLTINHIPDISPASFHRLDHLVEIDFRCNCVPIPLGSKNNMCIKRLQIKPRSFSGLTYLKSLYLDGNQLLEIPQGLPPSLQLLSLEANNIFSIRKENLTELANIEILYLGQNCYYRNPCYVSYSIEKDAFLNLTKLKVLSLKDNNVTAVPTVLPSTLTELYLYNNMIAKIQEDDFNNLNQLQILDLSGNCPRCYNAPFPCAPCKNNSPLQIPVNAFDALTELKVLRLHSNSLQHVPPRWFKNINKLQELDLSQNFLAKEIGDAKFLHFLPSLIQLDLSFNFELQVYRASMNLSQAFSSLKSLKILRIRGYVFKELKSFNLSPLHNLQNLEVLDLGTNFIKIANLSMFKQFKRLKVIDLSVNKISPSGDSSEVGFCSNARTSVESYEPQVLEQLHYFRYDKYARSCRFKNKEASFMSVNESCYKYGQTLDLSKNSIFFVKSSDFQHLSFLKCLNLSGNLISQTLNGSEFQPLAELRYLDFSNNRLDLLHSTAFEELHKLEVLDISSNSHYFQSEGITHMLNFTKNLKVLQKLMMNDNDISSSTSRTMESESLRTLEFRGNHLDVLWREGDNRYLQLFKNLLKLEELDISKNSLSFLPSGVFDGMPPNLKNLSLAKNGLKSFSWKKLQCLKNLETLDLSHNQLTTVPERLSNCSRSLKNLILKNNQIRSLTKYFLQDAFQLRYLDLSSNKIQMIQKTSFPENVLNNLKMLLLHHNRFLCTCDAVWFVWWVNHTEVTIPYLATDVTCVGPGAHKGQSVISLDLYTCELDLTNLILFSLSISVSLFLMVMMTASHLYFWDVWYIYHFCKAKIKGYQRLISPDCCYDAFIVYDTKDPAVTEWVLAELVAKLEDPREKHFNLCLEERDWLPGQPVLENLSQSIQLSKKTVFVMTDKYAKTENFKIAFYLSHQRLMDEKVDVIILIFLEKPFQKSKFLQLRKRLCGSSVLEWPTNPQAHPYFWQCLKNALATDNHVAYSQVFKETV
In short: (§1)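 Cells seeded per well (15000 TLR7, 20,000 TLR8, 25,000 TLR9); compound added over 0.05 nM–50 μM for 30 min at room temperature; agonist added (TLR7 gardiquimod 7.5 μM, TLR8 R848 15.9 μM, TLR9 ODN2006 5 nM); 22 h at 37 °C; SEAP measured; percent inhibition calculated.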

[2] = molecular target: T2, human TLR9 (Homo sapiens, UniProt Q9NR96); experiment: TLR9 inhibition reporter assay (HEK-Blue cells, SEAP reporter, ODN2006 stimulation); conditions: HEK-Blue cells overexpressing human TLR9, SEAP reporter, ODN2006 5 nM
T2 construct: host or cells: HEK-Blue cells (HEK293-derived reporter line)
T2 sequence (Q9NR96 26-1032): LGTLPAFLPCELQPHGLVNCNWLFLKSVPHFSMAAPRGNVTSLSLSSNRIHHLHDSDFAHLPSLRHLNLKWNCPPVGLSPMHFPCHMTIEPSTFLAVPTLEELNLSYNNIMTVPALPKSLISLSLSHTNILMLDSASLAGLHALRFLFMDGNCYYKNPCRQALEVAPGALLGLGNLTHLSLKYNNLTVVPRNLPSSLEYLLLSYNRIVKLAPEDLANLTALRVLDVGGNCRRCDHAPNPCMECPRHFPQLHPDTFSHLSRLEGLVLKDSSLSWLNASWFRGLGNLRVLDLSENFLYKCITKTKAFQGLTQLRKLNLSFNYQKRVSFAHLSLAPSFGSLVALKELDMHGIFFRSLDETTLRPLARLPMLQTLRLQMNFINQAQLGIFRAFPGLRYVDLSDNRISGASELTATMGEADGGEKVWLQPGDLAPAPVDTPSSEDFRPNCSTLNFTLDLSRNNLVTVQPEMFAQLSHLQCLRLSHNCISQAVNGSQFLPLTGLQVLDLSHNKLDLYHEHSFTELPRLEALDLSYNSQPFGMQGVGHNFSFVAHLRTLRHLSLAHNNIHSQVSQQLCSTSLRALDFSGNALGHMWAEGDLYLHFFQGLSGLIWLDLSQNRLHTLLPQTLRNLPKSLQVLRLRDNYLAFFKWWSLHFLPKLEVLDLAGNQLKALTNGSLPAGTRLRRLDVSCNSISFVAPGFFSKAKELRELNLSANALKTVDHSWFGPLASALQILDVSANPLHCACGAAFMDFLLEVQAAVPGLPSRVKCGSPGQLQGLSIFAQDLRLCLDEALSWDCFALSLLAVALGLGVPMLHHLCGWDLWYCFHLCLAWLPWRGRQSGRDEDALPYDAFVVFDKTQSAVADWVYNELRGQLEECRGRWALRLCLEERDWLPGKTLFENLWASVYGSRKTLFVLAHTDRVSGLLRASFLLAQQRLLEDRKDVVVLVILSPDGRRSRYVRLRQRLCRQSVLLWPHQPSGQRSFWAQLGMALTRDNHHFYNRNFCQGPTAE
In short: as §1

[3] = molecular target: T3, human TLR8 (Homo sapiens, UniProt Q9NR97); experiment: TLR8 inhibition reporter assay (HEK-Blue cells, SEAP reporter, R848 stimulation); conditions: HEK-Blue cells overexpressing human TLR8, SEAP reporter, R848 15.9 μM
T3 construct: host or cells: HEK-Blue cells (HEK293-derived reporter line)
T3 sequence (Q9NR97 27-1041): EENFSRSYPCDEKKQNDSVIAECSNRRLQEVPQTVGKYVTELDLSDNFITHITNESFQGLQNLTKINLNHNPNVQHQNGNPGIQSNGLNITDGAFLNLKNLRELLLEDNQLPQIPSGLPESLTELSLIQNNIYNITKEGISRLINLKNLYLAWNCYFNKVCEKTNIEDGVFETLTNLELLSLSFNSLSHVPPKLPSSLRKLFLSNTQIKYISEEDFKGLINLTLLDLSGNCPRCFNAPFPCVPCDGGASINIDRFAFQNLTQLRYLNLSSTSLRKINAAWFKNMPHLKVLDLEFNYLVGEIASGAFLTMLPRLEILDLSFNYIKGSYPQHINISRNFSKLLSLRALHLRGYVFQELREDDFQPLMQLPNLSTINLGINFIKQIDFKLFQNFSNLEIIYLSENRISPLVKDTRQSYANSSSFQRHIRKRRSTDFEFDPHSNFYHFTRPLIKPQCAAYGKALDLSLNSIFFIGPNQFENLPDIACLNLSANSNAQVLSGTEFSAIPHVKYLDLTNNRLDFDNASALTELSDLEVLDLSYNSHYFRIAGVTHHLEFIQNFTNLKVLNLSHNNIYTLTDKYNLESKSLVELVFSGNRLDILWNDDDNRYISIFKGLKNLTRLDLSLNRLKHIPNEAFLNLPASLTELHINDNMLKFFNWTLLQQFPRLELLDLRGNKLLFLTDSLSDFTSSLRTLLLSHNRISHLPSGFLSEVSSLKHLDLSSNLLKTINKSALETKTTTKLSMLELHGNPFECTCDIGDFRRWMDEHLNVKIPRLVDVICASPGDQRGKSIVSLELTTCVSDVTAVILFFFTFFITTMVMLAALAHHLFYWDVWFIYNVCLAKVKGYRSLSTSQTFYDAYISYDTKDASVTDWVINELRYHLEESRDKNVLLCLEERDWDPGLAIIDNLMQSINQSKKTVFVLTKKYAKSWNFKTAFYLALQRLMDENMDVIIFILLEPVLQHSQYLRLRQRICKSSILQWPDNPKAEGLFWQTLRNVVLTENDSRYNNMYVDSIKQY
In short: as §1

| Structure (SMILES) | IC50 [1] [nM] | IC50 [2] [nM] | IC50 [3] [nM] |
| --- | --- | --- | --- |
| Cc1cc(-c2[nH]c3ccc(C4CCN(CC(=O)N(C)C)CC4)cc3c2C(C)C)cn2nnnc12 [Example 313, 2-(4-(3-isopropyl-2-(8-methyltetrazolo[1,5-a]pyridin-6-yl)-1H-indol-5-yl)piperidin-1-yl)-N,N-dimethylacetamide] | < 100 | 1000 to 50000 | < 100 |
| CC(C)c1c(-c2ncnn3cccc23)[nH]c2ccc(C3CCNCC3)cc12 [Example 191, 4-(3-isopropyl-5-(piperidin-4-yl)-1H-indol-2-yl)pyrrolo[2,1-f][1,2,4]triazine] | 100 to 1000 | 100 to 1000 | 100 to 1000 |
| COc1cc(-c2[nH]c3ccc(C4CCNCC4)cc3c2C(C)C)cc2ncnn12 [Example 158, 7-(3-isopropyl-5-(piperidin-4-yl)-1H-indol-2-yl)-5-methoxy-[1,2,4]triazolo[1,5-a]pyridine] | < 100 | 1000 to 50000 | < 100 |
| COC(=O)c1c(-c2ccnc3[nH]ncc23)[nH]c2ccc(C3CCNCC3)cc12 [Example 174, methyl 5-(piperidin-4-yl)-2-(1H-pyrazolo[3,4-b]pyridin-4-yl)-1H-indole-3-carboxylate] | > 50000 | 1000 to 50000 | 1000 to 50000 |
| Fc1cc(-c2[nH]c3ccc(C4CCNCC4)cc3c2CC(F)F)cn2ccnc12 [Example 131, 6-(3-(2,2-difluoroethyl)-5-(piperidin-4-yl)-1H-indol-2-yl)-8-fluoroimidazo[1,2-a] pyridine] | < 100 | 100 to 1000 | 100 to 1000 |
| COc1cc(-c2[nH]c3ccc(C4CCNCC4)cc3c2C(C)C)cn2ccnc12 [Example 125, 6-(3-isopropyl-5-(piperidin-4-yl)-1H-indol-2-yl)-8-methoxyimidazo[1,2-a]pyridine] | < 100 | 100 to 1000 | < 100 |
| Cc1ccnc2[nH]cc(-c3[nH]c4ccc(C5CCNCC5)cc4c3C(C)C)c12 [Example 36, 3-(3-isopropyl-5-(piperidin-4-yl)-1H-indol-2-yl)-4-methyl-1H-pyrrolo[2,3-b]pyridine] | < 100 | 100 to 1000 | < 100 |
| CC(C)c1c(-c2ccn3c(=O)[nH]nc3c2)[nH]c2ccc(C3CCNCC3)cc12 [Example 199, 7-(3-isopropyl-5-(piperidin-4-yl)-1H-indol-2-yl)-[1,2,4]triazolo[4,3-a]pyridin-3(2H)-one] | < 100 | 100 to 1000 | < 100 |

Further lines, results first:

| IC50 [1] [nM] | IC50 [2] [nM] | IC50 [3] [nM] | Structure (SMILES) |
| --- | --- | --- | --- |
| < 100 | 1000 to 50000 | < 100 | CC(C)c1c(-c2cc(C(F)(F)F)c3nccn3c2)[nH]c2ccc(C3CCN(CC(=O)N(C)C)CC3)cc12 [Example 372, 2-(4-(3-isopropyl-2-(8-(trifluoromethyl)imidazo[1,2-a]pyridin-6-yl)-1H-indol-5-yl)piperidin-1-yl)-N,N-dimethylacetamide] |
| < 100 | 1000 to 50000 | < 100 | COc1cc(-c2[nH]c3ccc(C4CCN(CC(=O)N(C)C)CC4)cc3c2C(C)C)cn2cc(C(=O)N(C)C)nc12 [Example 432, 6-(5-(1-(2-(dimethylamino)-2-oxoethyl)piperidin-4-yl)-3-isopropyl-1H-indol-2-yl)-8-methoxy-N,N-dimethylimidazo[1,2-a]pyridine-2-carboxamide] |
| 100 to 1000 | 100 to 1000 | 100 to 1000 | CNC(=O)CN1CCC(c2ccc3[nH]c(-c4cc(C)n5ccnc5c4)c(C(C)C)c3c2)CC1 [Example 355, 2-(4-(3-isopropyl-2-(5-methylimidazo[1,2-a]pyridin-7-yl)-1H-indol-5-yl)piperidin-1-yl)-N-methylacetamide] |
| 100 to 1000 | 1000 to 50000 | < 100 | CCc1c(-c2ccnc3[nH]ncc23)[nH]c2ccc(C3CCN(Cc4cncs4)CC3)cc12 [Example 928, 5-((4-(3-ethyl-2-(1H-pyrazolo[3,4-b]pyridin-4-yl)-1H-indol-5-yl)piperidin-1-yl)methyl)thiazole] |
| < 100 | 1000 to 50000 | < 100 | CC(C)c1c(-c2cc(CO)c3nnnn3c2)[nH]c2ccc(C3CCN(CC4(C)COC4)CC3)cc12 [Example 781, (6-(3-isopropyl-5-(1-((3-methyloxetan-3-yl)methyl)piperidin-4-yl)-1H-indol-2-yl)tetrazolo[1,5-a]pyridin-8-yl)methanol] |
| < 100 | 1000 to 50000 | < 100 | CC(C)NCC(=O)N1CCC(c2ccc3[nH]c(-c4ccnc5[nH]ncc45)c(C(C)C)c3c2)CC1 [Example 578, 1-(4-(3-isopropyl-2-(1H-pyrazolo[3,4-b]pyridin-4-yl)-1H-indol-5-yl)piperidin-1-yl)-2-(isopropylamino)ethan-1-one] |
| 100 to 1000 | 1000 to 50000 | 1000 to 50000 | CNC(=O)CN1CCC(c2ccc3[nH]c(-c4cc(OC)n5cc(C)nc5c4)c(C(C)C)c3c2)CC1 [Example 335, 2-(4-(3-isopropyl-2-(5-methoxy-2-methylimidazo[1,2-a]pyridin-7-yl)-1H-indol-5-yl)piperidin-1-yl)-N-methylacetamide] |
